Measurements from article PMC4210897, “Antimicrobial Activity of Peptides Derived from Olive Flounder Lipopolysaccharide Binding Protein/Bactericidal Permeability-Increasing Protein (LBP/BPI)” (Marine Drugs, 2014).
Where no end group is shown, it is not given here.

Legend:
B. subtilis KCTC1021 = assay: Killing kinetic assay; assay type: cell-based, Bacillus subtilis; conditions: 10^6 CFU/mL, 37 °C, triplicate averaged
Method: To determine the killing activities of ofLBP-derived analogs, kinetic studies were performed using B. subtilis KCTC1021 and E. coli ML35p at 1× MEC and 5× MEC concentrations. Overnight culture of B. subtilis KCTC1021 and E. coli ML35p were diluted in TBS to a cell density of 10^6 CFU/mL and 1 mL of each suspension was exposed to each ofLBP-derived analog and incubated at 37 °C overnight. The resulting colonies were counted. Percent killing was calculated as the proportion of live bacteria at a given time point following the addition of peptide compared to the number of bacteria present prior to the addition of peptide. Control cultures of each bacterium were incubated without any peptide and assayed at time points corresponding to the test culture assays to ensure no spontaneous loss of viability. Killing kinetic assays were also performed in triplicate, and the results were averaged.

[1] = Calcein leakage assay, acidic liposomes; conditions: DOPC/DOPG (3:1) LUVs 95 µM, 20 mM TES pH 7.4, 25 °C, 3 min, peptide 20 μM
Method: (§1) For leakage experiments, large unilamellar vesicles (LUVs) (DOPC or DOPC-DOPG, 3:1) with encapsulated calcein were prepared using the extrusion method. The desired mixtures of phospholipids were dried in glass tubes under nitrogen and then lyophilized overnight to obtain lipid films. The dry lipid films were suspended in leakage buffer (20 mM TES buffer containing 150 mM NaCl, pH 7.4) and 70 mM calcein, and then vortexed occasionally to disperse the lipids. The suspension was freeze–thawed in liquid nitrogen for 10 cycles and extruded 10 times through 0.1-μm polycarbonate membrane filters in an Avanti mini extruder apparatus (Avanti Polar Lipids, Inc., Alabaster, AL, USA). […]
(§2) Leakage of calcein from liposomes was determined as described by Park et al.. […] The increase in the fluorescence of calcein when leaking out of liposomes was monitored at an emission wavelength of 520 nm and an excitation wavelength at 490 nm. The change in fluorescence intensity was measured for 3 min after peptide addition. […] The percentage of dye release was calculated as follows: Dye leakage (%) = 100 × (F − F0)/(Ft − F0) Where F is the fluorescence intensity caused by the peptide and F0 and Ft are those with buffer alone and with 10% Triton X-100, respectively.

[2] = Calcein leakage assay, neutral liposomes; conditions: DOPC LUVs 95 µM, 20 mM TES pH 7.4, 25 °C, 3 min, peptide 20 μM
Method: as §1, §2

Substance | Time to kill B. subtilis KCTC1021 at 1× MEC (B. subtilis KCTC1021) | Time to kill B. subtilis KCTC1021 at 5× MEC (B. subtilis KCTC1021) | Leakage of entrapped calcein from acidic liposomes at 20 μM [1] | Leakage of entrapped calcein from neutral liposomes at 20 μM [2]
MKLVKTWLKVLK-NH2 [ofLBP 6A] | ≤ 40 min | ≤ 10 min | – | –
Piscidin 1 [reference compound] | ≤ 40 min | ≤ 10 min | complete leakage | complete leakage
